Earlier results in patent US20210260201A1, “EXTRACELLULAR VESICLES FOR THE TREATMENT AND PREVENTION OF INFECTIONS AND OTHER DISEASES” (PHYSIS BIOTECHNOLOGIES, LLC, priority 2020, published 2021).
Like-named read-outs stand apart in the source and are kept apart here.

For C=C(C)[C@@H]1CCC(C)=C[C@H]1c1c(O)cc(CCCCC)cc1O [CBD, cannabidiol], the bioavailability (intranasal) is listed as 34-46%, the bioavailability (oral (edibles)) is listed as 6-20% and the bioavailability (sublingual (tinctures)) is listed as 13-19%.
